According to patent US12303523B2, “Method for treating dupuytren's disease” (Dale Biotech, LLC, priority 2019, dated 2025):
In brackets after ≈: the same amount, converted by molar mass.

Legend:
[1] = physchem; format: physicochemical
Experimental: Niclosamide ethanolamine salt (niclosamide) was dissolved and titrated (2-fold) in methanol to generate standard curves. The linear range of niclosamide quantification using UV spectrometry (333 nm) was established to be 0.006-0.1 mM. A suspension of niclosamide was prepared in H2O at a concentration of 32.7 mg/ml (100 mM) by vigorous vortexing. A stock solution of rhamnolipids were prepared in H2O at a concentration of 400 mg/ml and diluted appropriately prior to the addition of niclosamide in the presence or absence of 20% glycerol. Niclosamide was added to a final concentration of 10 mM. The solutions were vortexed vigorously, warmed at 37° C. for 5 minutes, vortexed vigorously, and then centrifuged at 17,000 RCF for 5 minutes to remove any large particulates. The supernatant of each sample was assayed for soluble niclosamide by diluting 1:10 to 1:100 in methanol and comparing to a niclosamide standard curve.

[2] = cited from earlier work
[3] = biological target: STAT3 (Homo sapiens, UniProt P40763); settings: Ren X, et al. ACS Med Chem Lett., 2010; cited from earlier work
Chain of STAT3 (P40763 whole entry, species assumed): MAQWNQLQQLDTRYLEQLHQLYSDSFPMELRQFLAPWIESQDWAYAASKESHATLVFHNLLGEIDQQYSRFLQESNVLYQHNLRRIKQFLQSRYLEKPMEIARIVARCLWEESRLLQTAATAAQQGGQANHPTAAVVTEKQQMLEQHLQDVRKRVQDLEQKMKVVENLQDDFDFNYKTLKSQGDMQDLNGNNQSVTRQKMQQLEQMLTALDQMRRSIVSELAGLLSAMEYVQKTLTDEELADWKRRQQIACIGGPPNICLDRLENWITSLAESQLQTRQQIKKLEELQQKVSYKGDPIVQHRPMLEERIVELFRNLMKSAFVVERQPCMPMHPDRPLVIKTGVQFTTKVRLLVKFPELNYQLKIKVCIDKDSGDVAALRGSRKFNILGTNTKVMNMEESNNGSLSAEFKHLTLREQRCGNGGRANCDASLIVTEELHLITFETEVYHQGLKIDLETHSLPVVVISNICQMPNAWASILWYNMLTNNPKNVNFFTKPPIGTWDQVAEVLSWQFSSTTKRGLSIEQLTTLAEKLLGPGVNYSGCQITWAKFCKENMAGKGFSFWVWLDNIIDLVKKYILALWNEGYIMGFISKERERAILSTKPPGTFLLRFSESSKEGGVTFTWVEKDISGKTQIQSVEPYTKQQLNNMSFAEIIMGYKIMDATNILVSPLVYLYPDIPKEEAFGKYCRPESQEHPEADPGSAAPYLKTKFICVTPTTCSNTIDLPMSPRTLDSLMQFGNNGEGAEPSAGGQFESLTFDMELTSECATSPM

[4] = system: NF-κB; settings: in vitro experiments; cited from earlier work

## O=C(Nc1ccc([N+](=O)[O-])cc1Cl)c1cc(Cl)ccc1O [Niclosamide ethanolamine, niclosamide ethanolamine]
[1]; 37 °C, water, thermodynamic from solid, Soluble Niclosamide mM, ±SD
  solubility at 5 min: 1.06 ± 0.053 mM (≈ 347 µg/mL)
[2]; distilled water, 20° C.
  solubility in distilled water: 180 to 280 µg/mL

## O=C(Nc1ccc([N+](=O)[O-])cc1Cl)c1cc(Cl)ccc1O [Niclosamide]
[1]; 5 min
  increase of solubility: more than 3 fold
[3]
  inhibition of activation and transcriptional function of STAT3: potently inhibits
[4]
  inhibition of NF-κB transcription, DNA binding, TNF-induced IκBα phosphorylation, p65 translocation, downstream gene expression: inhibits
[2]; DMSO
  solubility in DMSO: up to 10 mM
[2]; ethanol
  solubility in ethanol: 22000 µM (≈ 7200 µg/mL)
[2]; ether, ethanol, chloroform, acetone and DMSO
  solubility in organic solvents: sparingly soluble
[2]; water, 20° C.
  water solubility: 5 to 8 µg/mL
